Experimental data from US8614188B2, “Inhibiting collagen-induced platelet aggregation and activation with peptide variants” (University of Massachusetts, priority 2006, dated 2013).

Columns and labels:
cells = experiment: Toxicity of DMSO to cells; type: cell-based
Method: (§1) The CP and CP-A peptides were noted to be hydrophobic and insoluble in aqueous solutions. A variety of solvents and carriers were tested to improve their solubility. Solvents and/or carriers that improve solubility of CP and CP-A included, but were not limited to, ethanol, dimethylsulphoxide (DMSO), dimethyl formamide (DMF), and trifluoracetic acid (TFA). When using DMSO as a solvent, the final concentration used in the platelet function experiments ranged from 0.063%-0.250%. DMSO concentrations greater than 1% were observed toxic to cells. Stock solutions of CP and CP-A were prepared in DMSO and used at a […] dilution.

platelets = experiment: Collagen-induced platelet activation, whole blood flow cytometry (P-Selectin, PAC-1); type: cell-based, human; conditions: for concentration-dependent effect on collagen-induced platelet activation: 50, 100 or 200 μM
Method: Peripheral blood was drawn from healthy, nonsmoking adult volunteers (IRB-approved written informed consent) who had not received any platelet inhibitory drugs in the preceding 2 weeks. After discarding the first 2 mL, blood was drawn into a 3.2% sodium citrate Vacutainer® (Becton Dickinson, Franklin Lakes. N.J., USA).
Flow cytometric analysis may be used to evaluate platelet function, and/or the assessment of platelet activation. Michelson, A. D., “Evaluation of platelet function by flow cytometry” Pathophysiol. Haemost. Thromb. 35:67-82 (2006). In the absence of an added exogenous platelet agonist, whole blood flow cytometry can determine the activation state of circulating platelets, as judged by the binding of an activation-dependent monoclonal antibody. In addition to this assessment of platelet function in vivo, inclusion of an exogenous agonist in the assay enables analysis of the reactivity of circulating platelets in vitro. In the latter application, whole blood flow cytometry is a physiological assay of platelet function in that an agonist results in a specific functional response by the platelets: a change in the surface expression of a physiological receptor (or other antigen or bound ligand), as determined by a change in the binding of a monoclonal antibody.
Markers of platelet activation include activation-dependent changes in the glycoprotein IIb/IIIa complex and exposure of granule membrane proteins. The platelet glycoprotein IIb/IIIa complex is believed involved with biochemical events leading to activation, and may express an activation dependent epitope recognized by monoclonal antibody PAC-1. Shattil et al., “Changes in the platelet membrane glycoprotein IIb/IIIa complex during platelet activation” J. Biol. Chem. 260:11107-11114 (1985). P-Selectin (GMP-140, PADGEM, CD-62P) is now known to be a component of the alpha-granule membrane and is therefore exposed on the surface of the platelet upon activation, due to the fusing of the vesicle with the outer membrane. These two markers of platelet activation were used to study the effect of peptide on collagen-induced platelet activation using whole blood flow cytometry.
The final concentration of a peptide used in incubation (i.e., for example, the GPVI CP) was 100 μM. The following antibodies (and appropriately matched isotype control antibodies) were used for flow cytometry analysis: fluorescein isothiocyanate (FITC)-conjugated PAC-1 monoclonal antibody which recognizes the activated conformation of glycoprotein (GP) IIb/IIIa; phycoerythrin (PE)-conjugated anti-CD62P monoclonal antibody directed against P-Selectin; and PECy7-conjugated anti-CD41 monoclonal antibody which recognizes the α-subunit of the CD41/CD61 complex (GPIIb-IIIa) (BD-Pharmingen, San-Diego, Calif., USA; and/or DAKO, Carpinteria, Calif., USA).
Prior to flow cytometric experiments, PE-conjugated anti-CD62P and anti-CD41 antibodies were mixed at a ratio of 1:2.5 (volume/volume) and diluted at a ratio of 1:9 (volume/volume) with 10 mmol/L HEPES, 0.15 mol/L NaCl, pH 7.4, containing 1% bovine serum albumin (BSA) and 15 mmol/L sodium azide. Collagen was purchased from Chronolog Corp (Havertown, Pa., USA). The stock 1 mg/mL collagen solution was diluted at a ratio of 1:10 (volume/volume) with 10 mmol/L HEPES, 0.15 mol/L NaCl, pH 7.4. Stock solutions of GPVI core peptide in DMSO (or pure DMSO as a “vehicle” control) were diluted at a ratio of 1:10 (volume/volume) with 10 mmol/L HEPES, 0.15 mol/L NaCl, pH 7.4, immediately before the addition of blood samples.
Flow cytometric analysis: aliquots of citrated whole blood were incubated at 37° C. for 60 min with vehicle (DMSO; in a final concentrations of 0.063, 0.125 or 0.250%) or a preliminarily diluted GPVI core peptide in a final concentration of 100 μM. Then, the aliquoted samples were stimulated with 20 μg/mL collagen for 5 minutes at 37° C. in the presence of monoclonal antibody FITC-PAC-1. […]

[1] = Solubility of peptides in aqueous solutions and solvents; type: physicochemical; conditions: solubility improved by ethanol, DMSO, DMF, TFA
Method: as §1

Row | solubility in aqueous solutions [1] | Compound | DMSO concentration observed toxic to cells (cells) | reduction in the expression of the platelet activation markers compared to vehicle control (platelets; 100 μM peptide, whole blood preincubated 60 min 37° C., 20 μg/mL collagen, % P-Selectin-positive platelets, P-Selectin and PAC-1 MFI) | concentration-dependent effect on collagen-induced platelet activation (platelets; % P-Selectin-positive platelets, P-Selectin and PAC-1 MFI, listed as GPVI core peptide) | concentration-dependent effect on collagen-induced platelet activation (platelets; % P-Selectin-positive platelets, P-Selectin and PAC-1 MFI, listed as GPVI-CP) | inhibition of platelet activation (platelets; Examples 4 and 5) | expression of the platelet activation markers as compared to vehicle control (platelets; 100 μM peptide, 20 μg/mL collagen) | collagen-mediated platelet activation, percentage of P-Selectin-positive platelets (platelets; 100 μM, FIG. 8A) | collagen-mediated platelet activation, P-Selectin mean fluorescence surface expression intensity (platelets; 100 μM, FIG. 8B) | collagen-mediated platelet activation, PAC-1 mean fluorescence surface expression intensity (platelets; 100 μM, FIG. 8C)
1 | – | C[S+](C)[O-] [DMSO, dimethylsulphoxide] | greater than 1% | – | – | – | – | – | – | – | –
2 | insoluble | H-GNLVRICLGAV-OH [Peptide 2, NH2-Gly-Asn-Leu-Val-Arg-Ile-Cys-Leu-Gly-Ala-Val-OH] | – | 32%-59% | inhibited platelet activation in a concentration-dependent manner | concentration-dependent effect | 30-60% | – | – | – | –
3 | insoluble | H-GNLVAICLGAV-OH [CP-A, NH2-Gly-Asn-Leu-Val-Ala-Ile-Cys-Leu-Gly-Ala-Val-OH, reference compound] | – | – | – | – | – | did not lead to any significant differences | absence of effect | absence of effect | absence of effect
